{"source": "patent US6379714B1", "about": "“Pharmaceutical grade botanical drugs” (priority 1995, dated 2002)", "key": {"[1]": {"tested_on": "C3H Mammary adenocarcinoma 16/C", "experiment": "Growth of subcutaneous transplants of C3H mammary adenocarcinoma 16/C in mice", "assay_type": "in vivo, B6C3F1 hybrid female mice", "settings": "5-Fluorouracil 98 mg/kg, i.p., qd (1, 7, 14, 21)", "text": "Anticancer activities of T4GEN and n-T4GEN were studied in animals bearing subcutaneous transplants of C3H Mammary adenocarcinoma 16/C. This tumor is maintained as a lung passed tumor in C3H female mice. In this example, tumors (1×10^6 cells) were transplanted (S.C.) in 18-20 g B6C3F1 hybrid female mice. On the following day, the tumor bearing animals were randomized and separated into different treatment groups (10 mice per group). There were 15 animals in the control group who received only physiological saline during the treatment periods. […] Animals were weighed on days 5, 9 and 14 to assess toxic effects. Tumors were measured on days 21, 28 post transplants and the results are represented as tumor weights using formula [formula]\n(I=length of tumor, w=width of tumor expressed in mm)."}, "[2]": {"experiment": "Body weight change of tumor bearing mice (toxic effects)", "assay_type": "in vivo, B6C3F1 hybrid female mice", "settings": "5-Fluorouracil 98 mg/kg, i.p., qd (1, 7, 14, 21)", "text": "Anticancer activities of T4GEN and n-T4GEN were studied in animals bearing subcutaneous transplants of C3H Mammary adenocarcinoma 16/C. This tumor is maintained as a lung passed tumor in C3H female mice. In this example, tumors (1×10^6 cells) were transplanted (S.C.) in 18-20 g B6C3F1 hybrid female mice. On the following day, the tumor bearing animals were randomized and separated into different treatment groups (10 mice per group). There were 15 animals in the control group who received only physiological saline during the treatment periods. The treatments (i.p.) were started 48 hours after the transplants and given for a duration of 14 days (daily single injections). Animals were weighed on days 5, 9 and 14 to assess toxic effects. Tumors were measured on days 21, 28 post transplants and the results are represented as tumor weights using formula [formula]"}}, "data": [{"molecule": "O=c1[nH]cc(F)c(=O)[nH]1", "note": "[5-Fluorouracil]", "values": [{"measurement": "Tumor Free Animals (day 93)", "setting": "[1]", "value": "0/6"}, {"measurement": "Tumor Wts (day 21)", "setting": "[1]", "value": 0.00}, {"measurement": "Tumor Weight Inhibition %", "setting": "[1]; day 21", "value": 100, "unit": "%"}, {"measurement": "ΔWts (g) (day 14)", "setting": "[2]", "value": "+1.77 g"}]}]}
